Assay results as given in patent US20220031636A1, “COMPOUNDS THAT ENHANCE THE ACTION OF METFORMIN” (SOCIETE DES PRODUiTS NESTLE S.A., priority 2018, published 2022).
Entries after “also recorded” stand apart in the source; their conditions may differ.

Key:
[1] = molecular target: T1, bacterially-expressed AMPKα2β1γ1 (Homo sapiens, UniProt P54619+P54646+Q9Y478); assay: HTRF-KinEASE kinase assay of phosphorylated AMPK heterotrimer with AMP and fixed concentrations of Lusianthridin; type: biochemical
T1 construct: His; made in house
Protocol: The AMPK heterotrimers were expressed in bacteria and purified through the His-α subunit by nickel purification, further purified through gel filtration and finally phosphorylated by incubation with CaMKKβ. This phosphorylated AMPK was incubated with varying concentrations of AMP for 30 mins using substrate and reagents from the HTRF-KinEASE Cisbio assay kit (STK S1 Kit). Phosphorylation of the substrate was measured by incubating with donor and acceptor antibodies for 2 h at room temperature as per the manufacturer's protocol (and Coulerie et al., (2016), see below) and phosphorylated peptide detected by performing HTRF.

primary hepatocytes = assay: Lipogenesis in primary hepatocytes ([1-14C]-acetate incorporation into fatty acids); type: cell-based; details: low/non-saturating concentration, 1 h at 37 C
Protocol: Hepatocyte isolation: The liver was first perfused with 50 ml perfusion buffer (Krebs-Hepes buffer with […] EDTA), followed with 50 ml collagenase A buffer (Krebs-Hepes buffer with 5 mM CaCl2) and 0.5 mg/ml collagenase). After passage through a 100 μm mesh, the cell solution was washed several times with cold media and finally the cell culture pellet was resuspended in culture medium (medium 199 (M199)+GlutaMAX, 100 U/ml penicillin G, and 100 μg/ml streptomycin, 0.1% (wt/vol) BSA, 10% FCS, 10 nM insulin, 200 nM triiodothyronine and 500 nM dexamethasone). Hepatocytes were left to attach (3-4 h) and cultured overnight in M199 supplemented with antibiotics and 100 nM dexamethasone. Cells were used for experiments the following morning.
For lipogenesis measurements in primary hepatocytes, cells were seeded at 600 K cells per well in a 6-well plate overnight. Media was replaced with fresh M199 media alone for 2 hours prior to incubation with varying concentrations of Lusianthridin or compound 1 for 1 h at 37 C, in the presence of [1-^14C]-acetate. The incorporation of [^14C] into fatty acids was determined in the lower organic layer after separation from the aqueous phase.
Lipogenesis is controlled by the AMPK substrate ACC, and phosphorylation and inhibition of ACC by AMPK, leads to a decrease in lipogenesis. Lipogenesis was measured in primary hepatocytes by determining the incorporation of ^14C-labelled acetate into fatty acids.
Lipogenesis was monitored in the presence or absence of a low/non-saturating concentration of Lusianthridin or metformin for 1 h at 37 C. Furthermore, cells were incubated in the presence of both of these compounds.

T1 sequence (P54646 whole entry): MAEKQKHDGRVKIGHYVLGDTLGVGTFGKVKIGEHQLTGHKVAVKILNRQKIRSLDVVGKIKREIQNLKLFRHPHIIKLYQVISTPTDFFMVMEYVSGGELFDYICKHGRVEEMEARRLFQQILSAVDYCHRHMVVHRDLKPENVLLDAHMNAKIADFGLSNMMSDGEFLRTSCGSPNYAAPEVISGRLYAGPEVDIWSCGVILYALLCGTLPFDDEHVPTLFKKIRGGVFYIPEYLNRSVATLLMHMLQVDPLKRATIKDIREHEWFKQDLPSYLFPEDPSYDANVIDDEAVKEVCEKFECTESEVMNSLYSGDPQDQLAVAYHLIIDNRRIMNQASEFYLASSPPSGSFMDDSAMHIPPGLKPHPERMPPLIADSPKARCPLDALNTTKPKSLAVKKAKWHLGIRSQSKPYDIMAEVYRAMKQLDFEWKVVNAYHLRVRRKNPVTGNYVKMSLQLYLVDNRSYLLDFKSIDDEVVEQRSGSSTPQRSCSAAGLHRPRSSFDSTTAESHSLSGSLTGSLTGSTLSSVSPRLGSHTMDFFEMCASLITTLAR
T1 sequence (Q9Y478 whole entry): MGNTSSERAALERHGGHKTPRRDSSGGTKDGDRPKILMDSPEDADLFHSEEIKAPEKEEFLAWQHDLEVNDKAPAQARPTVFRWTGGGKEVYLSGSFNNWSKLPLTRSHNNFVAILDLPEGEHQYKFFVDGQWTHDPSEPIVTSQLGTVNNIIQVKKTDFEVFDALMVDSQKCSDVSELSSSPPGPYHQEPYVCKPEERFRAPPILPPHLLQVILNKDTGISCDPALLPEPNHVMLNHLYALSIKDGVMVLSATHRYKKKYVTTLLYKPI
T1 sequence (P54619 whole entry): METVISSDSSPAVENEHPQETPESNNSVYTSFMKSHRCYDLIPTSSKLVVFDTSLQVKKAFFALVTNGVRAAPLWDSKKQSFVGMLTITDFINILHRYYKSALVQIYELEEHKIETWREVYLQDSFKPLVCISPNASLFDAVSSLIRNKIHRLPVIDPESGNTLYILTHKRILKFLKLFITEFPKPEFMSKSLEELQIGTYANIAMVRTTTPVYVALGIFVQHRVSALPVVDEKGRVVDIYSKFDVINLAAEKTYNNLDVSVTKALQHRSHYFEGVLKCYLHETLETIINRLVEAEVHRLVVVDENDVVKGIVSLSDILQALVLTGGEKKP

## COc1cc(O)c2c(c1)CCc1cc(O)ccc1-2 [Lusianthridin, 7-Methoxy-9,10-dihydrophenanthrene-2,5-diol]
[1]; fixed concentrations of Lusianthridin plus varying AMP
  activation of AMPK in combination with AMP: additive activation of AMPK; also recorded: Additive Effect on AMP Activation
Primary hepatocytes
  inhibition of lipogenesis, compound alone (% lipogenesis compared to control untreated cells): inhibition of lipogenesis; also recorded: able to inhibit lipogenesis

## Nc1ncnc2c1ncn2[C@@H]1O[C@H](COP(=O)(O)O)[C@@H](O)[C@H]1O [AMP, reference compound]
[1]; AMP alone, varying concentrations, 30 mins
  AMPK activity (HTRF 665 nm/620 nm ratio): dose-dependent increase in AMPK activity

## CN(C)C(=N)N=C(N)N [Metformin]
Primary hepatocytes
  inhibition of lipogenesis, compound alone (% lipogenesis compared to control untreated cells): inhibition of lipogenesis
Primary hepatocytes; listed as metformin
  inhibition of lipogenesis, compound alone (% lipogenesis compared to control untreated cells): able to inhibit lipogenesis
